How the values were obtained:
[1] = Filter type and excipient compatibility screen, retention of tracer on filter (FIG. 1); format: physicochemical; conditions: in PEG400 at levels of the excipient exceeding 10%; Sartorius Minisart 16596 HY 0.2 μm (FIG. 1)
Protocol: In examples of experiments, tests were performed on prospective formulations with different filter types to screen for compatibility of the filter material. Both cellulose and polyethersulfone membranes retained unacceptable quantities of the drug substance, with the lowest retention values obtained using polyvinylidene difluoride (PVDF) and polytetrafluoroethylene (PTFE) derived membranes.
In this case, a solution of [^18F]NAV4694 in PEG400 appears to have low retention at levels of the excipient exceeding 10%.
In the ensuing experiments, each of the excipients were formulated at multiple concentration levels (within acceptable ranges) then treated with small quantities of [^18F]NAV4694 and finally filtered through the preferred filter units. The percent retention of drug substance was then directly calculated through measurement of the actual quantity of radioactivity retained on the filter and compared to that remaining in the filtrate.

[2] = [^18F]NAV4694 solution for injection: stability (radiochemical purity over time); format: physicochemical
Protocol: [^18F]NAV4694 solution for injection was tested over a range of radioactivity concentration values to determine the capacity and potential expiry at given concentrations.

[3] = radioactivity concentration below about 75 mCi/mL
[4] = very high activity levels (>100 mCi/mL)

retention of the tracer on the filter [1]: low retention
initial radiochemical purity [2, 3]: high initial radiochemical purity
time over which high radiochemical purity is retained [2, 3]: retained over at least ten hours
decomposition [2, 4]: accelerated decomposition
initial radiochemical purity [2, 4]: lower initial radiochemical purity
SMILES: CNc1ccc(-c2cc3cc(O)ccc3o2)c([18F])n1 [[^18F]NAV4694, 2-[2-(^18F)fluoro-6-(methylamino)-3-pyridinyl)-5-benzofuranol]

Source: patent US20180344881A1, “FORMULATIONS FOR 2-HETEROARYL SUBSTITUTED BENZOFURANS” (Navidea Biopharmaceuticals, Inc., priority 2015, published 2018)
